Blank lines part the entries; values can stand above or below the compound they belong to.
What was measured:
P388 [1] = test: Antitumor activity against mouse P388 cells implanted in DBA/2J mouse assessed as increase in mouse life span at 5 mg/kg, iv relative to control; type: functional
HeLa [2] = test: Antiproliferative activity against human HeLa cells after 72 hrs by MTT assay; type: functional, cell-based
MCF7 [3] = test: Antiproliferative activity against human MCF7 cells after 72 hrs by MTT assay; type: functional, cell-based; conditions: MCF7, 72 h
LS180 = test: Antiproliferative activity against human LS180 cells after 72 hrs by MTT assay; type: functional, cell-based; conditions: LS180, 72 h
Jurkat = test: Antiproliferative activity against human Jurkat cells after 72 hrs by MTT assay; type: functional, cell-based
[4] = Antiproliferative activity against human WM3629 cells; type: functional
A549 = test: Antiproliferative activity against human A549 cells; type: functional, cell-based
A-431 = test: Antitumor activity against human A431 cells xenografted in athymic mouse assessed as tumor growth inhibition at 25 mg/kg relative to control; type: functional; conditions: read-out: TGI
NUGC-3 = test: Antiproliferative activity against human NUGC3 cells after 72 hrs by MTT assay; type: functional, cell-based; conditions: NUGC-3, 72 h
P388 [5] = test: Antitumor activity against mouse P388 cells implanted in DBA/2J mouse assessed as increase in mouse life span at 200 mg/kg/day, po for 4 consecutive days relative to control; type: functional
HeLa [6] = test: Antiproliferative activity against human HeLa cells; type: functional, cell-based
HCT-116 = test: Antiproliferative activity against human HCT116 cells; type: functional, cell-based
MCF7 [7] = test: Antiproliferative activity against human MCF7 cells; type: functional, cell-based
Cytochrome P450 26A1 = target: T1, Cytochrome P450 26A1 (Homo sapiens, UniProt O43174); test: Inhibition of CYP26A1 (unknown origin)
T1 sequence (O43174 whole entry): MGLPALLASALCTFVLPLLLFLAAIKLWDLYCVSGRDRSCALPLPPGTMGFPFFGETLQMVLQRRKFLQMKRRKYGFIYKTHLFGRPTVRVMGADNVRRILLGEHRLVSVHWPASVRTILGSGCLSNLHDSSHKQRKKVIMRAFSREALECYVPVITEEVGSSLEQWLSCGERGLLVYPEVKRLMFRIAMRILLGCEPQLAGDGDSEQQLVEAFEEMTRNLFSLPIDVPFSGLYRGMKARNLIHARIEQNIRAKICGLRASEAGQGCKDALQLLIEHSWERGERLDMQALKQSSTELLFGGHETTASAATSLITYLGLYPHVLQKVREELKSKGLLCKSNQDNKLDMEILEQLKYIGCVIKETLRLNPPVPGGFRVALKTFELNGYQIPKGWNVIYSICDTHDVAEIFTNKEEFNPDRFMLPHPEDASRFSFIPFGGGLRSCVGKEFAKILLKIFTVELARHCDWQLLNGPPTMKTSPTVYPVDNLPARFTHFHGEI

SMILES: CC[C@]1(O)C[C@@H]2CN(CCc3c([nH]c4ccccc34)[C@@](C(=O)OC)(c3cc4c(cc3OC)N(C)[C@H]3[C@@](O)(C(=O)OC)[C@H](OC(C)=O)[C@]5(CC)C=CCN6CC[C@]43[C@@H]65)C2)C1 [VINBLASTINE]
ILS at 5 mg/kg (P388 [1]): 83%

IC50 (HeLa [2]): > 25 µM
IC50 (MCF7 [3]): > 25 µM
IC50 (Jurkat): > 25 µM
SMILES: CC1CC(=O)C2=C(C1)NC1=C(C(=O)c3ccccc31)C2c1ncc([N+](=O)[O-])n1C (stereo unspecified)
IC16 (HeLa [2]): 9.2 µM
IC16 (MCF7 [3]): > 25 µM
IC16 (LS180): 12.5 µM
IC50 (LS180): > 25 µM
IC16 (Jurkat): 0.7 µM

SMILES: C[C@H](O)CNc1nccc(-n2ccnc2-c2cccc(NC(=O)Nc3ccc(Cl)c(Cl)c3)c2)n1
GI50 [4]: 0.65 µM

IC50 (A549): 0.64 µM
SMILES: COc1ccc(-c2sc3nc(-c4ccc(F)cc4)c(C(=O)c4cccnc4)n3c2-c2ccc(OC)cc2)cc1

SMILES: COc1ccc(Cc2[nH]c(=N)n(C)c2Cc2ccc(O)cc2)cc1 [NAAMINE A]
inhibition in vivo at 25 mg/kg (A-431): 85%

IC50 (HeLa [2]): > 100 µM
IC50 (MCF7 [3]): > 100 µM
IC50 (Jurkat): 70.9 µM
SMILES: O=C1CCCc2nc3c(c(-c4ncc[nH]4)c21)C(=O)c1ccccc1-3
IC16 (HeLa [2]): > 100 µM
IC16 (MCF7 [3]): > 100 µM
IC16 (LS180): > 100 µM
IC50 (LS180): > 100 µM
IC16 (Jurkat): 1.7 µM

SMILES: Nc1nc(-c2cccs2)cn1-c1nc(-c2ccccc2)cs1
IC50 (NUGC-3): 0.05 µM
ILS at 200 mg/kg/day (P388 [5]): 75%

SMILES: CNC(=O)c1cc(Oc2ccc(NC(=O)Nc3ccc(Cl)c(C(F)(F)F)c3)cc2)ccn1 [SORAFENIB]
GI50 [4]: 0.78 µM

IC50 (HeLa [6]): 30.2 µM
SMILES: CCCCc1nc(Cl)c(-c2nc3ccccc3[nH]2)n1Cc1cccc(C)c1

IC50 (HCT-116): 0.5 µM
IC50 (MCF7 [7]): 0.5 µM
SMILES: C[S+]([O-])c1nc2cc(Cl)c(Cl)cc2n1C1CCCC1 (stereo unspecified)

IC50 (HeLa [2]): 59 µM
IC50 (MCF7 [3]): 77.1 µM
IC50 (Jurkat): 95.8 µM
SMILES: CC1CC(=O)C2=C(C1)N(c1ccccc1)C1=C(C(=O)c3ccccc31)C2c1nc(Cl)c(Cl)[nH]1 (stereo unspecified)
IC16 (HeLa [2]): 10.7 µM
IC16 (MCF7 [3]): 13.6 µM
IC16 (LS180): 19.4 µM
IC50 (LS180): > 100 µM
IC16 (Jurkat): 1.7 µM

IC50 (HCT-116): 0.6 µM
IC50 (MCF7 [7]): 0.6 µM
SMILES: CS(=O)(=O)c1nc2cc(Cl)c(Cl)cc2n1C1CCCC1

SMILES: C[C@H](O)CNc1nccc(-n2ccnc2-c2cccc(NC(=O)c3ccc(Cl)c(C(F)(F)F)c3)c2)n1
GI50 [4]: 0.62 µM

IC50 (HeLa [6]): 25.3 µM
SMILES: CCCCCCCn1c(CCCC)nc(Cl)c1-c1nc2ccccc2[nH]1

IC50 (Cytochrome P450 26A1): 0.03 µM
SMILES: COC(=O)C(C)(C)C(c1ccc(Nc2ccc3ccccc3c2)cc1)n1ccnc1 (stereo unspecified)

IC50 (HCT-116): 3 µM
IC50 (MCF7 [7]): 40 µM
SMILES: Cc1nc2cc(Cl)c(Cl)cc2n1C1CCCC1

— ChEMBL document CHEMBL4261505, “Imidazoles as potential anticancer agents” (Medchemcomm, 2017)
